Measured values as given in PubChem BioAssay (NCI).
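Five concentrations, 48 hours, 96-well plates. TGI is the concentration that stops growth completely.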

How the values were obtained:
Assay in all cases: growth of human tumour cells (NCI), 48 h
A549 NSCLC = test system: A549 NSCLC
RPMI-8226 leukemia = test system: RPMI-8226 leukemia
OVCAR-5 ovarian = test system: OVCAR-5 ovarian
HT29 colon = test system: HT29 colon
786-0 renal = test system: 786-0 renal
OVCAR-4 ovarian = test system: OVCAR-4 ovarian
SR leukemia = test system: SR leukemia
ACHN renal = test system: ACHN renal
SNB-19 CNS = test system: SNB-19 CNS
M19-MEL melanoma = test system: M19-MEL melanoma
SNB-78 CNS = test system: SNB-78 CNS
M14 melanoma = test system: M14 melanoma
KM12 colon = test system: KM12 colon
NCI-H460 lung = test system: NCI-H460 lung
U251 CNS = test system: U251 CNS
SF-268 CNS = test system: SF-268 CNS
K-562 leukemia = test system: K-562 leukemia
RXF-631 renal = test system: RXF-631 renal
HCT-15 colon = test system: HCT-15 colon
EKVX NSCLC = test system: EKVX NSCLC
DLD-1 colon = test system: DLD-1 colon
LOX IMVI melanoma = test system: LOX IMVI melanoma
XF 498 CNS = test system: XF 498 CNS
NCI-H226 lung = test system: NCI-H226 lung
CCRF-CEM leukemia = test system: CCRF-CEM leukemia
SK-MEL-28 melanoma = test system: SK-MEL-28 melanoma
SK-MEL-2 melanoma = test system: SK-MEL-2 melanoma
NCI-H23 lung = test system: NCI-H23 lung
COLO 205 colon = test system: COLO 205 colon
MOLT-4 leukemia = test system: MOLT-4 leukemia
SN12C renal = test system: SN12C renal
UO-31 renal = test system: UO-31 renal
IGROV1 ovarian = test system: IGROV1 ovarian
RXF 393 renal = test system: RXF 393 renal
SF-295 CNS = test system: SF-295 CNS
KM20L2 colon = test system: KM20L2 colon
HCC-2998 colon = test system: HCC-2998 colon
OVCAR-3 ovarian = test system: OVCAR-3 ovarian
UACC-257 melanoma = test system: UACC-257 melanoma
NCI-H522 lung = test system: NCI-H522 lung
SW-620 colon = test system: SW-620 colon
SK-MEL-5 melanoma = test system: SK-MEL-5 melanoma
HL-60(TB) leukemia = test system: HL-60(TB) leukemia
LXFL 529 NSCLC = test system: LXFL 529 NSCLC
CAKI-1 renal = test system: CAKI-1 renal
UACC-62 melanoma = test system: UACC-62 melanoma
MALME-3M melanoma = test system: MALME-3M melanoma
OVCAR-8 ovarian = test system: OVCAR-8 ovarian
SF-539 CNS = test system: SF-539 CNS
HCT-116 colon = test system: HCT-116 colon
SNB-75 CNS = test system: SNB-75 CNS
HOP-62 NSCLC = test system: HOP-62 NSCLC
TK-10 renal = test system: TK-10 renal
HOP-18 NSCLC = test system: HOP-18 NSCLC
MDA-MB-231 breast = test system: MDA-MB-231 breast
MDA-MB-435 = test system: MDA-MB-435
NCI/ADR-RES ovarian = test system: NCI/ADR-RES ovarian
PC-3 prostate = test system: PC-3 prostate
SK-OV-3 ovarian = test system: SK-OV-3 ovarian
DU-145 prostate = test system: DU-145 prostate
BT-549 breast = test system: BT-549 breast
MCF7 breast = test system: MCF7 breast
A498 renal = test system: A498 renal
HOP-92 NSCLC = test system: HOP-92 NSCLC
DMS 273 small cell lung = test system: DMS 273 small cell lung
T-47D breast = test system: T-47D breast
HS 578T breast = test system: HS 578T breast
DMS 114 small cell lung = test system: DMS 114 small cell lung
MDA-N = test system: MDA-N

Structure (SMILES): C/C(O)=C/c1nc2ccccc2[nH]1
- TGI (A549 NSCLC): > 100 µM
- TGI (RPMI-8226 leukemia): > 100 µM
- TGI (OVCAR-5 ovarian): > 100 µM
- TGI (HT29 colon): > 100 µM
- TGI (786-0 renal): > 100 µM
- TGI (OVCAR-4 ovarian): > 100 µM
- TGI (SR leukemia): > 100 µM
- TGI (ACHN renal): > 100 µM
- TGI (SNB-19 CNS): > 100 µM
- TGI (M19-MEL melanoma): > 100 µM
- TGI (SNB-78 CNS): > 100 µM
- TGI (M14 melanoma): > 100 µM
- TGI (KM12 colon): > 100 µM
- TGI (NCI-H460 lung): > 100 µM
- TGI (U251 CNS): > 100 µM
- TGI (SF-268 CNS): > 100 µM
- TGI (K-562 leukemia): > 100 µM
- TGI (RXF-631 renal): > 100 µM
- TGI (HCT-15 colon): > 100 µM
- TGI (EKVX NSCLC): > 100 µM
- TGI (DLD-1 colon): > 100 µM
- TGI (LOX IMVI melanoma): > 100 µM
- TGI (XF 498 CNS): > 100 µM
- TGI (NCI-H226 lung): > 100 µM
- TGI (CCRF-CEM leukemia): > 100 µM
- TGI (SK-MEL-28 melanoma): > 100 µM
- TGI (SK-MEL-2 melanoma): > 100 µM
- TGI (NCI-H23 lung): > 100 µM
- TGI (COLO 205 colon): > 100 µM
- TGI (MOLT-4 leukemia): > 100 µM
- TGI (SN12C renal): > 100 µM
- TGI (UO-31 renal): > 100 µM
- TGI (IGROV1 ovarian): > 100 µM
- TGI (RXF 393 renal): > 100 µM
- TGI (SF-295 CNS): > 100 µM
- TGI (KM20L2 colon): > 100 µM
- TGI (HCC-2998 colon): > 100 µM
- TGI (OVCAR-3 ovarian): > 100 µM
- TGI (UACC-257 melanoma): > 100 µM
- TGI (NCI-H522 lung): > 100 µM
- TGI (SW-620 colon): > 100 µM
- TGI (SK-MEL-5 melanoma): > 100 µM
- TGI (HL-60(TB) leukemia): > 100 µM
- TGI (LXFL 529 NSCLC): > 100 µM
- TGI (CAKI-1 renal): > 100 µM
- TGI (UACC-62 melanoma): > 100 µM
- TGI (MALME-3M melanoma): > 100 µM
- TGI (OVCAR-8 ovarian): > 100 µM
- TGI (SF-539 CNS): > 100 µM
- TGI (HCT-116 colon): > 100 µM
- TGI (SNB-75 CNS): 78.8 µM

Structure (SMILES): O=C(/C=C/c1ccc(OCCSCCCCCCCCCCSCCOc2ccc(/C=C/C(=O)c3ccc(Cl)cc3)cc2)cc1)c1ccc(Cl)cc1
- TGI (A549 NSCLC): > 100 µM
- TGI (HOP-62 NSCLC): 95.4 µM
- TGI (RPMI-8226 leukemia): > 100 µM
- TGI (OVCAR-5 ovarian): > 100 µM
- TGI (HT29 colon): > 100 µM
- TGI (786-0 renal): > 100 µM
- TGI (OVCAR-4 ovarian): > 100 µM
- TGI (SR leukemia): > 100 µM
- TGI (ACHN renal): > 100 µM
- TGI (TK-10 renal): > 100 µM
- TGI (SNB-19 CNS): > 100 µM
- TGI (M19-MEL melanoma): > 100 µM
- TGI (SNB-78 CNS): > 100 µM
- TGI (HOP-18 NSCLC): > 100 µM
- TGI (M14 melanoma): > 100 µM
- TGI (KM12 colon): > 100 µM
- TGI (NCI-H460 lung): > 100 µM
- TGI (U251 CNS): > 100 µM
- TGI (SF-268 CNS): > 100 µM
- TGI (K-562 leukemia): > 100 µM
- TGI (MDA-MB-231 breast): > 100 µM
- TGI (MDA-MB-435): > 100 µM
- TGI (RXF-631 renal): > 100 µM
- TGI (NCI/ADR-RES ovarian): > 100 µM
- TGI (HCT-15 colon): > 100 µM
- TGI (EKVX NSCLC): > 100 µM
- TGI (DLD-1 colon): > 100 µM
- TGI (PC-3 prostate): > 100 µM
- TGI (LOX IMVI melanoma): > 100 µM
- TGI (SK-OV-3 ovarian): > 92.8 µM
- TGI (DU-145 prostate): > 100 µM
- TGI (NCI-H226 lung): > 100 µM
- TGI (CCRF-CEM leukemia): > 100 µM
- TGI (SK-MEL-28 melanoma): > 100 µM
- TGI (SK-MEL-2 melanoma): > 100 µM
- TGI (BT-549 breast): > 100 µM
- TGI (NCI-H23 lung): > 100 µM
- TGI (MCF7 breast): > 100 µM
- TGI (COLO 205 colon): > 100 µM
- TGI (MOLT-4 leukemia): > 100 µM
- TGI (SN12C renal): > 100 µM
- TGI (A498 renal): > 100 µM
- TGI (HOP-92 NSCLC): 81.6 µM
- TGI (UO-31 renal): > 100 µM
- TGI (IGROV1 ovarian): > 100 µM
- TGI (RXF 393 renal): > 80.6 µM
- TGI (SF-295 CNS): > 97.6 µM
- TGI (KM20L2 colon): > 100 µM
- TGI (HCC-2998 colon): > 100 µM
- TGI (DMS 273 small cell lung): > 100 µM
- TGI (OVCAR-3 ovarian): > 100 µM
- TGI (T-47D breast): > 100 µM
- TGI (UACC-257 melanoma): > 100 µM
- TGI (NCI-H522 lung): > 100 µM
- TGI (SW-620 colon): > 100 µM
- TGI (SK-MEL-5 melanoma): > 100 µM
- TGI (HL-60(TB) leukemia): > 100 µM
- TGI (HS 578T breast): > 100 µM
- TGI (LXFL 529 NSCLC): > 100 µM
- TGI (DMS 114 small cell lung): > 100 µM
- TGI (CAKI-1 renal): > 100 µM
- TGI (UACC-62 melanoma): > 100 µM
- TGI (MALME-3M melanoma): > 100 µM
- TGI (OVCAR-8 ovarian): > 100 µM
- TGI (MDA-N): > 100 µM
- TGI (SF-539 CNS): > 81.7 µM
- TGI (HCT-116 colon): > 100 µM
- TGI (SNB-75 CNS): 63.3 µM
